pIC50, pKd: −log10 of the molar value. In brackets after ≈: the same amount, converted by molar mass. Each block holds one compound with its values, some of them ahead of it.
Assays:
[1] = molecular target: Bromodomain-containing protein 4 (Homo sapiens, UniProt O60885); test: Inhibition of BRD4 bromodomain 1 (unknown origin) by TR-FRET assay
[2] = Lipophilicity, LogD of compound; assay type: physicochemical; conditions: octanol/water
[3] = Kinetic solubility of compound; assay type: physicochemical; conditions: read-out: Kinetic_solubility
Protein polybromo-1 [4] = molecular target: T1, Protein polybromo-1 (Homo sapiens, UniProt Q86U86); test: Binding affinity to human PBRM1 bromodomain 5 (S645 to D766 residues) expressed in bacterial expression system by bromoscan assay
T1 sequence (Q86U86 whole entry, the tested form may be a part): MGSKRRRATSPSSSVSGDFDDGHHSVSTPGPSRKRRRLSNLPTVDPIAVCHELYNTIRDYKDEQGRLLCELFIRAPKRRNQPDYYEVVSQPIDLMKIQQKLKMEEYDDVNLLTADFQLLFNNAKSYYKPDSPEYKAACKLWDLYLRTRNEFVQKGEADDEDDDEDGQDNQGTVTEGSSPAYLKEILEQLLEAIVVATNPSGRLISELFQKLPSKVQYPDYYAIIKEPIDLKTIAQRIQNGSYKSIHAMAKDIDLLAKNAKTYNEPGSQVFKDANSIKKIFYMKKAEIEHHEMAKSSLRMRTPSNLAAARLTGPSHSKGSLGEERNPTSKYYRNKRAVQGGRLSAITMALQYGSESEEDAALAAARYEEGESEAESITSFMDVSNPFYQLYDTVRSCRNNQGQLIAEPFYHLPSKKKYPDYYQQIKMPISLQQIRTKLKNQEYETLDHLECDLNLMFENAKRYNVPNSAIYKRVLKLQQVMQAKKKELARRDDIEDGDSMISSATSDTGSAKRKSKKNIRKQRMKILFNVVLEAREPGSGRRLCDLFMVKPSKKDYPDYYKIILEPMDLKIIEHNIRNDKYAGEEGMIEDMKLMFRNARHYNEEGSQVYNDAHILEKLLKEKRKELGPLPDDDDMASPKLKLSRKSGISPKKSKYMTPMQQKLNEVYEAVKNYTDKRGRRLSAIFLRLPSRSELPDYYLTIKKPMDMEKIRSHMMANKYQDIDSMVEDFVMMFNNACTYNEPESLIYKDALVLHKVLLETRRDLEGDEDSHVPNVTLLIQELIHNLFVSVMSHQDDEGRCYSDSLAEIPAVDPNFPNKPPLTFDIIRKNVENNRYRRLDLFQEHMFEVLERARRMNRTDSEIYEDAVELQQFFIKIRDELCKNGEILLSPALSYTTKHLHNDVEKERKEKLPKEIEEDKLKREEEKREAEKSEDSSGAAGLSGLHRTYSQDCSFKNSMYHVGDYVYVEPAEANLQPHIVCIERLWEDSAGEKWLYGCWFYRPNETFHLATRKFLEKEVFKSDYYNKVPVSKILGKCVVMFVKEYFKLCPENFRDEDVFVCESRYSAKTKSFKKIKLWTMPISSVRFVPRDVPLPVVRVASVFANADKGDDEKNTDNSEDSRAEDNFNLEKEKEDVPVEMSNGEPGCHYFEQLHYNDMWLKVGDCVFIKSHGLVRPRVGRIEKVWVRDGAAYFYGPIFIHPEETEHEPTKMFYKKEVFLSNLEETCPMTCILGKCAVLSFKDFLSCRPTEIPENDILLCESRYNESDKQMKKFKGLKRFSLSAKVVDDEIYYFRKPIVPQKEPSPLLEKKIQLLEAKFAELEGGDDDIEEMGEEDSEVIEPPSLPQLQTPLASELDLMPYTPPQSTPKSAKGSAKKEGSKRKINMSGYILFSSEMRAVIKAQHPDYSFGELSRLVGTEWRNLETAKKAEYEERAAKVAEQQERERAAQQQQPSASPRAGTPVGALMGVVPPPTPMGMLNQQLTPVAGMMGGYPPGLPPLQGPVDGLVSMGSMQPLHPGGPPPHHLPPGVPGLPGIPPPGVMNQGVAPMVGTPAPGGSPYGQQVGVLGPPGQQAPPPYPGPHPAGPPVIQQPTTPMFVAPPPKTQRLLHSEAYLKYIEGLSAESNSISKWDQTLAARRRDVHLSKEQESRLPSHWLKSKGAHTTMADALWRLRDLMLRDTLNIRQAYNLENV

[5] = molecular target: T2, SWI/SNF-related matrix-associated actin-dependent regulator of chromatin subfamily A member 4 (Homo sapiens, UniProt P51532); test: Binding affinity to His6/FLAG-tagged SMARCA4 (unknown origin) by isothermal titration calorimetric assay
T2 sequence (P51532 whole entry, the tested form may be a part): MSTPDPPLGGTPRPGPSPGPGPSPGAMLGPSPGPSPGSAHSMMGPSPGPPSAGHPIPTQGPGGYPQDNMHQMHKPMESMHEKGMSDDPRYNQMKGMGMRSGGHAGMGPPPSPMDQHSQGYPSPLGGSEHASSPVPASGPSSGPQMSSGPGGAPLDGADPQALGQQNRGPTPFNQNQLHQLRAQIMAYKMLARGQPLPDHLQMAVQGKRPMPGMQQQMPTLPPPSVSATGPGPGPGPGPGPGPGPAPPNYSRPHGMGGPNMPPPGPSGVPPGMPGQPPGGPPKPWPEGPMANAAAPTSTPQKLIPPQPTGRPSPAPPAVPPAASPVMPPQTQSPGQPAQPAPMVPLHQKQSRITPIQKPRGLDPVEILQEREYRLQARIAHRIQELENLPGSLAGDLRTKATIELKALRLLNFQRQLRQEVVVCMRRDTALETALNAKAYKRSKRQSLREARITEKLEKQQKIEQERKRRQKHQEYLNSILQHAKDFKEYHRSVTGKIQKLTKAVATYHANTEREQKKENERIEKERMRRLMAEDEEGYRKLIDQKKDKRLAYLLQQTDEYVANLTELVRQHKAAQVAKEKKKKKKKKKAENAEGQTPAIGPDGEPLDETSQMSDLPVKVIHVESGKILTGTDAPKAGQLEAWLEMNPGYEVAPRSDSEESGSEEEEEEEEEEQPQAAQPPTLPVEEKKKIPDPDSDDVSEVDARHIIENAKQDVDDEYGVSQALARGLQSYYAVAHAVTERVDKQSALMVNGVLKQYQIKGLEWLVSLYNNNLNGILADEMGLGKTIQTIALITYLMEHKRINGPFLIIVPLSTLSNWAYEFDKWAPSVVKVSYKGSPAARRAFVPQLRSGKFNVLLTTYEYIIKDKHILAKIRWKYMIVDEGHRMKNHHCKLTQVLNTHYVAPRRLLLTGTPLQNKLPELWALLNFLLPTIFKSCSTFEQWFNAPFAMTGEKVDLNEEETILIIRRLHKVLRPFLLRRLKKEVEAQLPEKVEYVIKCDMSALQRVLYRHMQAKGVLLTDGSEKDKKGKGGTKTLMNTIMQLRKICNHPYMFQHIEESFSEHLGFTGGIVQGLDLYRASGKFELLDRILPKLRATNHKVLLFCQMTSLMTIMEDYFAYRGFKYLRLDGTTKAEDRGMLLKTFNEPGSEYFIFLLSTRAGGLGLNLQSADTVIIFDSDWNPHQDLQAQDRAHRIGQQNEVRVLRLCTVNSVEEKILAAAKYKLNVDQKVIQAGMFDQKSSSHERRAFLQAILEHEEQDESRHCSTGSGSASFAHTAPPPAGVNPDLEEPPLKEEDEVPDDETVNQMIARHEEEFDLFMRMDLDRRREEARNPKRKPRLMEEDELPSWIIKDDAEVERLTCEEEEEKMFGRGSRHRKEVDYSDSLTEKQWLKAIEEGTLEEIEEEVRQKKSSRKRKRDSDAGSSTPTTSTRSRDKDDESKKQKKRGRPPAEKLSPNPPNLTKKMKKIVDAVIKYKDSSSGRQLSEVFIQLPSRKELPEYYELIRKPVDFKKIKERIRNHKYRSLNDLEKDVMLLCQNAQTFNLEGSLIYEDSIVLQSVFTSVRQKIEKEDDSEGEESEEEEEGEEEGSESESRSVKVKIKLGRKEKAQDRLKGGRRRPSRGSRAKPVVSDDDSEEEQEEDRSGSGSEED

Protein polybromo-1 [6] = molecular target: T1, Protein polybromo-1; test: Binding affinity to human PBRM1 bromodomain 2 (S178 to E291 residues) expressed in bacterial expression system by bromoscan assay
[7] = molecular target: T3, SWI/SNF-related matrix-associated actin-dependent regulator of chromatin subfamily A member 2 (Homo sapiens, UniProt P51531); test: Inhibition of SMARCA2 (unknown origin) by TR-FRET assay
T3 sequence (P51531 whole entry): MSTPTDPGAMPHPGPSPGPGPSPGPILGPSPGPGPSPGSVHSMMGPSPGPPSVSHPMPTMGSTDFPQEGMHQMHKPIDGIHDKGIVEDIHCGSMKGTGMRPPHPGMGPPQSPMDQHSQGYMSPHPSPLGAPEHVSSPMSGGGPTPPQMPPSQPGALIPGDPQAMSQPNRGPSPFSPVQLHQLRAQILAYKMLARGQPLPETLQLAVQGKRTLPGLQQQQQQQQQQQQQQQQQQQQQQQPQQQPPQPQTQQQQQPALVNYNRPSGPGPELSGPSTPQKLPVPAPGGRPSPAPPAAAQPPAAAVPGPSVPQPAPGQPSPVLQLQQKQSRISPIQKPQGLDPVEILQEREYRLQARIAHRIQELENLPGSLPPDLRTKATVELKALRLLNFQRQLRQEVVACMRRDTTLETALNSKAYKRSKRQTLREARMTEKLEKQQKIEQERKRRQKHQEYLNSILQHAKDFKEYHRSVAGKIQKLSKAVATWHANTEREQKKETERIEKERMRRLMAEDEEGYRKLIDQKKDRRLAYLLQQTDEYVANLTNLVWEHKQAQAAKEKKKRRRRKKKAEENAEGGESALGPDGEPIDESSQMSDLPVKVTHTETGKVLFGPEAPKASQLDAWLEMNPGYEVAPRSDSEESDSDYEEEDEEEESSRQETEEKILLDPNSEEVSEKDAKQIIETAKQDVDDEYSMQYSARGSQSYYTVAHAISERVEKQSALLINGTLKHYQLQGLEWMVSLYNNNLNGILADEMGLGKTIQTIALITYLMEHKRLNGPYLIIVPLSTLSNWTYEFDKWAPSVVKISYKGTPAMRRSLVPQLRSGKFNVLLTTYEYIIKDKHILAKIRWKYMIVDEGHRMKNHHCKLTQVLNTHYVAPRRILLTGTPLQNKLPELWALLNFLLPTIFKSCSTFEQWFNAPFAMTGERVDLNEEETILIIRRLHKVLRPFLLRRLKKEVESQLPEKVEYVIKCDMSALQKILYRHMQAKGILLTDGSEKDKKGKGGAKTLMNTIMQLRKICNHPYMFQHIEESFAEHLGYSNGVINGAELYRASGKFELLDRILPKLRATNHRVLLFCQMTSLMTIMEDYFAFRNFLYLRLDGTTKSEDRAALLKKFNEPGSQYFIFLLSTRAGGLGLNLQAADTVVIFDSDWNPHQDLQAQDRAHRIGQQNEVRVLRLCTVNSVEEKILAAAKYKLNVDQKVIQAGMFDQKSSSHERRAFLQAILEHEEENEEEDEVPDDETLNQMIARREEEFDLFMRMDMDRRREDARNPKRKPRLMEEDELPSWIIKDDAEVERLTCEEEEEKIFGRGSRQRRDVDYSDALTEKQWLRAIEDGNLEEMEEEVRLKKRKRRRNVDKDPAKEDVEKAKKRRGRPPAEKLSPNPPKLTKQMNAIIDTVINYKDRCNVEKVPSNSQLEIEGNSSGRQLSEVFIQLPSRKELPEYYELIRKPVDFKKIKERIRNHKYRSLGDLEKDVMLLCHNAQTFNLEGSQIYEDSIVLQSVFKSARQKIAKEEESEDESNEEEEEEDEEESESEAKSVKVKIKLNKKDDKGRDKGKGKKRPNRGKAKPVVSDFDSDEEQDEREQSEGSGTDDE

[8] = molecular target: T2, SWI/SNF-related matrix-associated actin-dependent regulator of chromatin subfamily A member 4
[9] = molecular target: T3, SWI/SNF-related matrix-associated actin-dependent regulator of chromatin subfamily A member 2; test: Binding affinity to human SMARCA2 (S1337 to Q1486 residues) expressed in bacterial expression system by bromoscan assay
[10] = molecular target: T2, SWI/SNF-related matrix-associated actin-dependent regulator of chromatin subfamily A member 4; test: Binding affinity to human SMARCA4 (A1448 to S1575 residues) expressed in bacterial expression system by bromoscan assay
Protein polybromo-1 [11] = molecular target: T1, Protein polybromo-1; test: Inhibition of PBRM1 bromodomain 5 (unknown origin) by TR-FRET assay
[12] = Tmax in CD-1 mouse at 1 mg/kg, po; assay type: ADME, organism-based; conditions: in vivo
[13] = Oral bioavailability in CD-1 mouse at 1 mg/kg; assay type: ADME, organism-based; conditions: in vivo
Cytochrome P450 2C19 = Cytochrome P450 2C19 (Homo sapiens, UniProt P33261); test: Inhibition of CYP2C19 (unknown origin); assay type: ADME
[14] = Unbound volume of distribution at steady state in CD-1 mouse at 0.5 mg/kg, iv; assay type: ADME, organism-based; conditions: in vivo
[15] = Volume of distribution at steady state in CD-1 mouse at 0.5 mg/kg, iv; assay type: ADME, organism-based; conditions: in vivo, read-out: Vdss
Cytochrome P450 3A4 = Cytochrome P450 3A4 (Homo sapiens, UniProt P08684); test: Inhibition of CYP3A4 (unknown origin); assay type: ADME
[16] = Clearance in CD-1 mouse at 0.5 mg/kg, iv; assay type: ADME, organism-based; conditions: in vivo
Cytochrome P450 2C9 = Cytochrome P450 2C9 (Homo sapiens, UniProt P11712); test: Inhibition of CYP2C9 (unknown origin); assay type: ADME
[17] = Unbound clearance in CD-1 mouse at 0.5 mg/kg, iv; assay type: ADME, organism-based; conditions: in vivo
[18] = Half life in CD-1 mouse at 0.5 mg/kg, iv; assay type: ADME, organism-based; conditions: in vivo
[19] = Protein binding in human plasma; assay type: ADME, cell-free; conditions: read-out: PPB (converted)
Cytochrome P450 1A2 = molecular target: T4, Cytochrome P450 1A2 (Homo sapiens, UniProt P05177); test: Inhibition of CYP1A2 (unknown origin); assay type: ADME
T4 sequence (P05177 whole entry): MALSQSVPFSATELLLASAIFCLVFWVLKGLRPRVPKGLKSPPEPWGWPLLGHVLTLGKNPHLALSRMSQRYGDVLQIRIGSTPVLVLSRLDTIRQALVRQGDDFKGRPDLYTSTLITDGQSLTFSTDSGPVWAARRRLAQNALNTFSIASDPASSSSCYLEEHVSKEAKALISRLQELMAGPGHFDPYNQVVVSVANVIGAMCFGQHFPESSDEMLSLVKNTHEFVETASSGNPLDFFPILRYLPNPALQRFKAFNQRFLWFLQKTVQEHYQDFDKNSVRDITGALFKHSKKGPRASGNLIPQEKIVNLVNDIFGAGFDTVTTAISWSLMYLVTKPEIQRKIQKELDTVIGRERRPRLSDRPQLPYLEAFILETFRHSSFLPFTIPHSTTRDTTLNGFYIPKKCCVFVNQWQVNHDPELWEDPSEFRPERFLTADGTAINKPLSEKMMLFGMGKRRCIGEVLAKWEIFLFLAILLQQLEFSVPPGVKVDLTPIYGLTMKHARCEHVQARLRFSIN

[20] = Protein binding in mouse plasma; assay type: ADME, cell-free; conditions: read-out: PPB (converted)
Cytochrome P450 2C8 = molecular target: T5, Cytochrome P450 2C8 (Homo sapiens, UniProt P10632); test: Inhibition of CYP2C8 (unknown origin); assay type: ADME
T5 sequence (P10632 whole entry): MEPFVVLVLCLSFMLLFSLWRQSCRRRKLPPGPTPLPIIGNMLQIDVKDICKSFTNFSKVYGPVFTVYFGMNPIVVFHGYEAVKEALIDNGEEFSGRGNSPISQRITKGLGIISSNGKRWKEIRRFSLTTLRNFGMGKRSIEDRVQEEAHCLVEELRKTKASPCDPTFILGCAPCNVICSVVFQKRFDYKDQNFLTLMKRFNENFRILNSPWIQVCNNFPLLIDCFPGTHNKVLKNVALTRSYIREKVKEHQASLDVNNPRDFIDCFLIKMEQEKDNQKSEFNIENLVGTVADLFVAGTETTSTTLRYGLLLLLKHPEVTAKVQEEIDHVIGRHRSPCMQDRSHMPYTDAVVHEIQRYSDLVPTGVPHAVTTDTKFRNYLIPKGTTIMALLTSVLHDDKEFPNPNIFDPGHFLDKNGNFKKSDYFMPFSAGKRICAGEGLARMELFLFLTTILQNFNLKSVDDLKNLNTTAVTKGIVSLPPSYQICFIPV

[21] = Fraction unbound in CD-1 mouse at 1 mg/kg, po; assay type: ADME, organism-based; conditions: in vivo
[22] = Cmax in CD-1 mouse at 1 mg/kg, po; assay type: ADME, organism-based; parameters: dose 1 mg/kg, route po; conditions: in vivo
[23] = Protein binding in rat plasma; assay type: ADME, cell-free; conditions: read-out: PPB (converted)
Cytochrome P450 2D6 = Cytochrome P450 2D6 (Homo sapiens, UniProt P10635); test: Inhibition of CYP2D6 (unknown origin); assay type: ADME

pIC50 [1]: 4.57
logD [2]: 3.3
solubility kinetic [3]: 11 µM (≈ 2.9 µg/mL)
SMILES: Nc1nnc(-c2ccccc2O)cc1-c1ccccc1

pKd (Protein polybromo-1 [4]): 6.24
pIC50 [1]: < 4.00
pKd [5]: 5.46
pKd (Protein polybromo-1 [6]): 6.77
pIC50 [7]: 5.37
pIC50 [8]: 5.28
pKd [9]: 6.47
pKd [10]: 6.29
pIC50 (Protein polybromo-1 [11]): 5.51
SMILES: Nc1nnc2c([nH]c3ccccc32)c1-c1ccccc1

pKd (Protein polybromo-1 [4]): 4.57
pIC50 [1]: < 4.00
pKd (Protein polybromo-1 [6]): 5.24
pIC50 [8]: 4.24
pKd [9]: 5.36
pKd [10]: 5.00
SMILES: Nc1nnc(-c2ccccc2)cc1-c1ccccc1

Tmax [12]: 30 min
bioavailability [13]: 59%
pIC50 (Cytochrome P450 2C19): < 5.00
pIC50 [1]: 4.47
Vduss [14]: 3.2 L/kg
Vd [15]: 1 L/kg
pIC50 (Cytochrome P450 3A4): < 5.00
clearance [16]: 16 mL/min/kg
pIC50 (Cytochrome P450 2C9): < 5.00
logD [2]: 2
CL free [17]: 52 mL/min/kg
half-life [18]: 66 min
fraction unbound [19]: 0.24
pIC50 (Cytochrome P450 1A2): < 5.00
fraction unbound [20]: 0.31
pIC50 (Cytochrome P450 2C8): < 5.00
fraction unbound [21]: 0.31
solubility kinetic [3]: 120 µM (≈ 39.3 µg/mL)
Cmax [22]: 1000 nM
fraction unbound [23]: 0.41
pIC50 (Cytochrome P450 2D6): < 5.00
SMILES: CC(=O)N1CCN(c2cc(-c3ccccc3O)nnc2N)C[C@H]1C

Source: ChEMBL document CHEMBL5137085, “GNE-064: A Potent, Selective, and Orally Bioavailable Chemical Probe for the Bromodomains of SMARCA2 and SMARCA4 and the Fifth Bromodomain of PBRM1” (J Med Chem, 2022)
